Common to all, as to test: relative viability (nuclei count vs DMSO), 5 days (fraction); higher = more cells survive
Compound in test [1]: CC1(COc2ccc3c(c2)ncn3-c2ccc3cccc(N4CCC(N)CC4)c3n2)COC1 [Crenolanib] + CC1(C)CCC(c2ccc(Cl)cc2)=C(CN2CCN(c3ccc(C(=O)NS(=O)(=O)c4ccc(N[C@H](CCN5CCOCC5)CSc5ccccc5)c(S(=O)(=O)C(F)(F)F)c4)cc3)CC2)C1 [Navitoclax] (partner 0.5 µM)
The gist of the method: (§1)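 Medians of duplicate plates are given as relative viability. That measure is the nuclei count in treated wells divided by the count in vehicle wells. Counts were taken on 4× images of lung cancer cell lines in 1536-well plates, 5 days after pin-tool dosing the day after seeding with one drug alone or a fixed anchor-drug dose plus five library-drug doses (not always all listed) in √10 steps.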

Compound in test [2]: CC1(COc2ccc3c(c2)ncn3-c2ccc3cccc(N4CCC(N)CC4)c3n2)COC1 [Crenolanib] + CC(C)C[C@H](NC(=O)[C@H](Cc1ccccc1)NC(=O)c1cnccn1)B(O)O [Bortezomib] (partner 0.002 µM)
Summed up: as §1

Compound in test [3]: O=C1NC(=O)[C@@H](c2cn3c4c(cccc24)CCC3)[C@@H]1c1c[nH]c2ccccc12 [Tivantinib] + N=C(N)NC(=N)NCCc1ccccc1 [Phenformin] (partner 250 µM)
Summed up: as §1

Compound in test [4]: CC1(COc2ccc3c(c2)ncn3-c2ccc3cccc(N4CCC(N)CC4)c3n2)COC1 [Crenolanib] + Nc1nc2[nH]cc(CCc3ccc(C(=O)N[C@@H](CCC(=O)O)C(=O)O)cc3)c2c(=O)[nH]1 [Pemetrexed] (partner 0.2 µM)
The gist of the method:
as §1

HCC-15: the relative viability turned out to be 0.694 in test [1] (first compound 0.01 µM); 0.673 in test [1] (first compound 0.03162 µM); 0.677 in test [1] (first compound 0.1 µM); 0.784 in test [1] (first compound 0.3162 µM); 0.729 in test [1] (first compound 1 µM); 1.15 in test [2] (first compound 0.01 µM). Besides, the relative viability in test [2] (first compound 0.03162 µM) came to 1.01; in test [2] (first compound 0.1 µM), 0.909; in test [2] (first compound 0.3162 µM), 1.05; in test [2] (first compound 1 µM), 0.956; in test [3] (first compound 0.01 µM), 0.476; in test [3] (first compound 0.03162 µM), 0.411. Also, the relative viability in test [3] (first compound 0.1 µM) was determined as 0.478; in test [3] (first compound 0.3162 µM), 0.479; in test [4] (first compound 0.01 µM), 0.23; in test [4] (first compound 0.03162 µM), 0.215; in test [4] (first compound 0.1 µM), 0.227; in test [4] (first compound 0.3162 µM) it was 0.228. Besides, the relative viability in test [4] (first compound 1 µM) turned out to be 0.213.

Take HCC-44: the relative viability in test [1] (first compound 0.01 µM) was found to be 0.951; in test [1] (first compound 0.03162 µM), 0.998; in test [1] (first compound 0.1 µM) it was 0.961; in test [1] (first compound 0.3162 µM) it was 0.987; in test [1] (first compound 1 µM) it was 0.94; in test [2] (first compound 0.01 µM), 0.944. In addition, the relative viability in test [2] (first compound 0.03162 µM) was determined as 0.876; in test [2] (first compound 0.1 µM), 0.856; in test [2] (first compound 0.3162 µM), 0.878; in test [2] (first compound 1 µM), 0.833; in test [3] (first compound 0.01 µM), 0.325; in test [3] (first compound 0.03162 µM), 0.171. For the same cell line, the relative viability in test [3] (first compound 0.1 µM) came out at 0.225; in test [3] (first compound 0.3162 µM) it was 0.215; in test [4] (first compound 0.01 µM), 0.639; in test [4] (first compound 0.03162 µM) it was 0.662; in test [4] (first compound 0.1 µM), 0.707; in test [4] (first compound 0.3162 µM), 0.632. Moreover, the relative viability in test [4] (first compound 1 µM) worked out at 0.642.

Regarding IA-LM, the relative viability came to 0.749 in test [1] (first compound 0.01 µM); 0.692 in test [1] (first compound 0.03162 µM); 0.809 in test [1] (first compound 0.1 µM); 0.95 in test [1] (first compound 0.3162 µM); 0.948 in test [1] (first compound 1 µM); 0.806 in test [2] (first compound 0.01 µM). The relative viability in test [2] (first compound 0.03162 µM) was determined as 0.771; in test [2] (first compound 0.1 µM) it was 0.726; in test [2] (first compound 0.3162 µM), 0.949; in test [2] (first compound 1 µM), 0.978.

On to LCLC-103H, for which the relative viability was found to be 1.05 in test [2] (first compound 0.01 µM); 1.02 in test [2] (first compound 0.03162 µM); 0.922 in test [2] (first compound 0.1 µM); 0.954 in test [2] (first compound 0.3162 µM); 0.976 in test [2] (first compound 1 µM); 0.327 in test [3] (first compound 0.01 µM). The relative viability in test [3] (first compound 0.03162 µM) stood at 0.312; in test [3] (first compound 0.1 µM), 0.378; in test [3] (first compound 0.3162 µM), 0.374; in test [4] (first compound 0.01 µM), 0.453; in test [4] (first compound 0.03162 µM) it was 0.45; in test [4] (first compound 0.1 µM), 0.476. Besides, the relative viability in test [4] (first compound 0.3162 µM) is 0.503; in test [4] (first compound 1 µM), 0.48.

For the cell line LK-2, the relative viability in test [1] (first compound 0.01 µM) was found to be 0.909; in test [1] (first compound 0.03162 µM), 1.07; in test [1] (first compound 0.1 µM), 0.93; in test [1] (first compound 0.3162 µM) it was 1.05; in test [1] (first compound 1 µM) it was 0.933; in test [3] (first compound 0.01 µM), 0.44. For the same cell line, the relative viability in test [3] (first compound 0.1 µM) amounted to 0.314; in test [3] (first compound 0.3162 µM) it was 0.339; in test [4] (first compound 0.01 µM), 0.314; in test [4] (first compound 0.03162 µM) it was 0.268; in test [4] (first compound 0.1 µM) it was 0.263; in test [4] (first compound 0.3162 µM), 0.27. For the same cell line, the relative viability in test [4] (first compound 1 µM) stood at 0.274.

Consider NCI-H358, for which the relative viability in test [3] (first compound 0.01 µM) is 0.339; in test [3] (first compound 0.03162 µM), 0.327; in test [3] (first compound 0.1 µM) it was 0.282; in test [3] (first compound 0.3162 µM) it was 0.189; in test [4] (first compound 0.01 µM), 0.176; in test [4] (first compound 0.03162 µM), 0.169. In addition, the relative viability is 0.176 in test [4] (first compound 0.1 µM), 0.178 in test [4] (first compound 0.3162 µM) and 0.188 in test [4] (first compound 1 µM).

On to NCI-H522, for which the relative viability in test [3] (first compound 0.01 µM) was 0.604; in test [3] (first compound 0.03162 µM), 0.646; in test [3] (first compound 0.1 µM) it was 0.636; in test [3] (first compound 0.3162 µM), 0.644; in test [4] (first compound 0.01 µM), 0.976; in test [4] (first compound 0.03162 µM) it was 1.19. The relative viability is 1.06 in test [4] (first compound 0.1 µM), 1.06 in test [4] (first compound 0.3162 µM) and 0.738 in test [4] (first compound 1 µM).

Consider NCI-H650, for which the relative viability in test [2] (first compound 0.01 µM) came out at 0.944; in test [2] (first compound 0.03162 µM) it was 0.767; in test [2] (first compound 0.1 µM) it was 0.769; in test [2] (first compound 0.3162 µM), 0.855; in test [2] (first compound 1 µM), 0.68; in test [3] (first compound 0.01 µM), 0.47. Also, the relative viability was found to be 0.387 in test [3] (first compound 0.03162 µM); 0.448 in test [3] (first compound 0.1 µM); 0.479 in test [3] (first compound 0.3162 µM); 1.03 in test [4] (first compound 0.01 µM); 1.01 in test [4] (first compound 0.03162 µM); 0.93 in test [4] (first compound 0.1 µM). For the same cell line, the relative viability in test [4] (first compound 0.3162 µM) came out at 0.932; in test [4] (first compound 1 µM), 0.918.

With NCI-H661, the relative viability in test [2] (first compound 0.01 µM) was found to be 0.807; in test [2] (first compound 0.03162 µM), 0.853; in test [2] (first compound 0.1 µM), 0.851; in test [2] (first compound 0.3162 µM), 0.831; in test [2] (first compound 1 µM) it was 0.745; in test [3] (first compound 0.01 µM) it was 0.288. The relative viability was 0.281 in test [3] (first compound 0.03162 µM); 0.404 in test [3] (first compound 0.1 µM); 0.271 in test [3] (first compound 0.3162 µM); 0.959 in test [4] (first compound 0.01 µM); 0.903 in test [4] (first compound 0.03162 µM); 0.925 in test [4] (first compound 0.1 µM). The relative viability in test [4] (first compound 0.3162 µM) was determined as 0.966; in test [4] (first compound 1 µM), 0.979.

On to NCI-H727, for which the relative viability turned out to be 0.57 in test [1] (first compound 0.01 µM); 0.414 in test [1] (first compound 0.03162 µM); 0.462 in test [1] (first compound 0.1 µM); 0.467 in test [1] (first compound 0.3162 µM); 0.362 in test [1] (first compound 1 µM); 0.905 in test [2] (first compound 0.01 µM). For the same cell line, the relative viability in test [2] (first compound 0.03162 µM) came to 0.92; in test [2] (first compound 0.1 µM), 0.821; in test [2] (first compound 0.3162 µM), 0.869; in test [2] (first compound 1 µM), 0.991; in test [3] (first compound 0.01 µM) it was 0.636; in test [3] (first compound 0.03162 µM) it was 0.409. The relative viability stood at 0.393 in test [3] (first compound 0.1 µM) and 0.584 in test [3] (first compound 0.3162 µM).

For the origin of these results see the supplement of paper PMC10307832.
